Measured values reported in patent US6365616B1, “Methimazole derivatives and tautomeric cyclic thiones to treat autoimmune diseases” (Sentron Medical, Inc., priority 1998, dated 2002).
Where two headings read alike, the source gives them in different places.

Columns and labels:
[1] = system: swine class I promoter (PD1); assay: Luciferase assay, FRTL-5 cells stably transfected with class I promoter-luciferase chimeras; format: cell-based; settings: for inhibition at 10 µM / inhibition at 25 µM / inhibition at 100 µM / inhibition at 1000 µM: Sus scrofa
Source text: The swine PD1 5′-flanking sequence-CAT chimeras (−1100, −203, and −127), as well as two mutants with the CRE site with −107 to −100 bp deleted (−203ΔCRE and −127ΔCRE) were used to create luciferase reporter gene constructs. The inserts were released by restriction enzyme digestion, purified from agarose gel using QIAEX (QIAGEN, Chatsworth, Calif.) and ligated in the NheI-HindIII site of the PGL-2 basic vector (PROMEGA, Madison, Wis.) using a DNA ligation kit from TAKARA biomedicals (TAKARA SHUZO Co). JM109 bacterial competent cells (PROMEGA, Madison, Wis.) were transformed with the ligation reaction and plated in agar plates for 12 h at 37° C. The colonies were picked and screened with minipreps using QIAprep spin plasmid kit (QIAGEN, Chatsworth, Calif.) and restriction enzyme digestion. The plasmids were then purified by CsCl gradient centrifugation.
The PD1-PGL-2 basic constructs and the Class II-PGL-2 basic constructs were stably transfected in the FRTL-5 cells using a Lipofectamine (GIBCO, Life Technologies, Inc.) method. Near confluent cells in 6H medium were cotransfected with 20 μg of plasmid DNA and 2 μg of a pcDNA3neo or a pPUR selection vector (CLONTECH, Palo Alto, Calif.). After 24-48 hours, 400 μg/ml of G418 (GIBCO, Life Technologies, Inc.) or 10 μM of puromycin (SIGMA) were added to the medium. After 3 weeks the antibiotic-resistant colonies were cloned by limiting dilution and screened to determine their interferon sensitivity. At least 5 cell lines of each construct were isolated, each of whose activity was increased by adding 100 U/ml γ interferon to the medium of the cells. The following data (Tables 10-13) were obtained with one clone of each of the class I or class II-luciferase chimera, but were representative of at least three other clones of each.
Luciferase activity was measured using the Luciferase assay system (PROMEGA, Madison, Wis.). Briefly, treated or untreated cells from a 100 mm culture dish were washed with PBS, scraped and collected in microfuge tubes. The pellet was dissolved in 100 μl 1× reporter lysis buffer and incubated at room temperature for 15 minutes. Cells were frozen in dry ice plus ethanol and thawed in water at room temperature. After vortexing for 10 sec, tubes were centrifuged at 12,000×g for 5 min. Twenty μl of the supernatant were mixed with 100 μl of Luciferase assay reagent and immediately placed in a luminometer. Light was measured for a period of 10 sec after a 2 sec delay.
Treatment of cells, maintained either in the presence of TSH or its absence, with 100 U/ml interferon, increased class I and class II promoter activity (Table 10). In this experiment FRTL-5 cells were grown to 80% confluency in 6H medium with TSH then treated with 100 U/ml γ-interferon, 5 mM MMI or both together. Luciferase activity was measured after 40 hours as described. Several points are notable. First, interferon increases both class I and class II promoter activity in the stable transfectants. Second, MMI inhibits both interferon-increased class I and interferon-increased class II promoter activity.

MHC class I RNA = assay: Northern analysis of MHC class I RNA levels in FRTL-5 cells; format: cell-based, rat; settings: for inhibition at 1000 µM / inhibition at 5000 µM / inhibition at 100 µM: Rattus norvegicus
[2] = FRTL-5, 10 μM, 100 U/ml γ-interferon, 6H medium, 40 hours, read-out: % inhibition of IFN-increased p(−203)LUC class I promoter activity
[3] = FRTL-5, 25 μM, 6H medium, 40 hours, read-out: % inhibition of basal p(−203)LUC class I promoter activity
[4] = FRTL-5, 100 μM, 6H medium, 40 hours, read-out: % inhibition of basal p(−203)LUC class I promoter activity
[5] = FRTL-5, 100 μM, 100 U/ml γ-interferon, 6H medium, 40 hours, read-out: % inhibition of IFN-increased p(−203)LUC class I promoter activity
[6] = FRTL-5, 1.0 mM, 6H medium, 40 hours, read-out: % inhibition of basal p(−203)LUC class I promoter activity
[7] = FRTL-5, 1.0 mM, 100 U/ml γ-interferon, 6H medium, 40 hours, read-out: % inhibition of IFN-increased p(−203)LUC class I promoter activity
[8] = 100 μM, 100 U/ml γ-interferon, 6H medium (TSH), 40 hours
[9] = 100 μM, basal, 5H medium, 40 hours
[10] = FRTL-5, 1 mM, 100 U/ml γ-interferon, 6H medium (TSH), 40 hours, read-out: % inhibition of class I RNA expression (γ-interferon-treated)
[11] = FRTL-5, 1 mM, basal, 5H medium, 40 hours, read-out: % inhibition of class I RNA expression (basal)
[12] = FRTL-5, 5 mM, 100 U/ml γ-interferon, 6H medium (TSH), 40 hours, read-out: % inhibition of class I RNA expression (γ-interferon-treated)
[13] = FRTL-5, 5 mM, basal, 5H medium, 40 hours, read-out: % inhibition of class I RNA expression (basal)
[14] = FRTL-5, read-out: % inhibition of IFN-increased p(−203)LUC class I promoter activity
[15] = FRTL-5, read-out: % inhibition of basal p(−203)LUC class I promoter activity

Cn1ccnc1S [Compound 1, 1-Methylimidazole-2-thiol]
effect on basal p(−203) class I luciferase activity ([1]; 1 or 5 mM, stable transfectants): no significant effect | inhibition at 10 µM [1, 2]: 0% | inhibition at 25 µM [1, 3]: 0% | inhibition at 100 µM [1, 4]: 0% | inhibition at 100 µM [1, 5]: 0% | inhibition at 1000 µM [1, 6]: 0% | inhibition at 1000 µM [1, 7]: 45 ± 10% | Luciferase activity + 5 mM MMI ([1]; Vector-LUC Control, 40 hours): 100 ± 6 % Control | Luciferase activity +γ-IFN + 5 mM MMI ([1]; Vector-LUC Control, 40 hours): 105 ± 5 % Control | Luciferase activity + 5 mM MMI ([1]; p(−127) class I-LUC, 40 hours): 135 ± 17 % Control | Luciferase activity +γ-IFN + 5 mM MMI ([1]; p(−127ΔCRE) class I-LUC, 40 hours): 101 ± 4 % Control | Luciferase activity + 5 mM MMI ([1]; p(−203) class I-LUC, 40 hours): 105 ± 38 % Control | Luciferase activity +γ-IFN + 5 mM MMI ([1]; p(−203ΔCRE) class I-LUC, 40 hours): 106 ± 6 % Control | % inhibition of class I RNA expression (γ-interferon-treated) (MHC class I RNA; [8]): None | % inhibition of class I RNA expression (basal) (MHC class I RNA; [9]): None | inhibition at 1000 µM (MHC class I RNA; [10]): 29 ± 7% | inhibition at 1000 µM (MHC class I RNA; [11]): 25 ± 10% | inhibition at 5000 µM (MHC class I RNA; [12]): 52 ± 15% | inhibition at 5000 µM (MHC class I RNA; [13]): 42 ± 8%

Cc1ncc([N+](=O)[O-])n1CCO [Compound 2, 2-Methyl-5-nitro-1-imidazole ethanol]
inhibition at 10 µM [1, 2]: 0% | inhibition at 25 µM [1, 3]: 0% | inhibition at 100 µM [1, 4]: 0% | inhibition at 100 µM [1, 5]: 10 ± 6% | inhibition at 1000 µM [1, 6]: 42 ± 6% | inhibition at 1000 µM [1, 7]: 57 ± 5% | % inhibition of class I RNA expression (γ-interferon-treated) (MHC class I RNA; [8]): None | % inhibition of class I RNA expression (basal) (MHC class I RNA; [9]): None | inhibition at 1000 µM (MHC class I RNA; [10]): 42 ± 5% | inhibition at 1000 µM (MHC class I RNA; [11]): 49 ± 6% | inhibition at 5000 µM (MHC class I RNA; [12]): 68 ± 13% | inhibition at 5000 µM (MHC class I RNA; [13]): 63 ± 14%

Sc1ncc[nH]1 [Compound 3, 2-Mercaptoimidazole]
inhibition at 25 µM [1, 3]: 0% | inhibition at 100 µM [1, 4]: 0% | inhibition at 1000 µM [1, 6]: 0% | % inhibition of class I RNA expression (γ-interferon-treated) (MHC class I RNA; 1 mM, 100 U/ml γ-interferon, 6H medium (TSH), 40 hours): None | % inhibition of class I RNA expression (basal) (MHC class I RNA; 1 mM, basal, 5H medium, 40 hours): None | % inhibition of class I RNA expression (γ-interferon-treated) (MHC class I RNA; 5 mM, 100 U/ml γ-interferon, 6H medium (TSH), 40 hours): None | % inhibition of class I RNA expression (basal) (MHC class I RNA; 5 mM, basal, 5H medium, 40 hours): None

Sc1nc2ccccc2[nH]1 [Compound 4, 2-Mercaptobenzimidazole]
inhibition at 10 µM [1, 14]: 0% | inhibition at 100 µM [1, 14]: 0% | inhibition at 1000 µM [1, 14]: 39 ± 6% | inhibition at 25 µM [1, 15]: 0% | inhibition at 100 µM [1, 15]: 0% | inhibition at 1000 µM [1, 15]: 50 ± 5% | % inhibition of class I RNA expression (γ-interferon-treated) (MHC class I RNA; [8]): None | % inhibition of class I RNA expression (basal) (MHC class I RNA; [9]): None | inhibition at 1000 µM (MHC class I RNA; FRTL-5, 40 h, read-out: % inhibition of class I RNA expression (basal)): 34 ± 13% | inhibition at 1000 µM (MHC class I RNA; FRTL-5, 40 h, read-out: % inhibition of class I RNA expression (γ-interferon-treated)): 37 ± 10%

O=[N+]([O-])c1ccc2[nH]c(S)nc2c1 [Compound 5, 2-Mercapto-5-nitrobenzimidazole]
inhibition at 10 µM [1, 2]: 0% | inhibition at 25 µM [1, 3]: 0% | inhibition at 100 µM [1, 4]: 0% | inhibition at 100 µM [1, 5]: 0% | inhibition at 1000 µM [1, 6]: 0% | inhibition at 1000 µM [1, 7]: 9 ± 7% | % inhibition of class I RNA expression (γ-interferon-treated) (MHC class I RNA; [8]): None | % inhibition of class I RNA expression (basal) (MHC class I RNA; [9]): None | inhibition at 1000 µM (MHC class I RNA; [10]): 19 ± 7% | inhibition at 1000 µM (MHC class I RNA; [11]): 32 ± 11%

Cc1ccc2[nH]c(S)nc2c1 [Compound 6, 2-Mercapto-5-methylbenzimidazole]
inhibition at 25 µM [1, 3]: 0% | inhibition at 100 µM [1, 4]: 0% | inhibition at 1000 µM [1, 6]: 0% | inhibition at 1000 µM [1, 7]: 19 ± 10% | % inhibition of class I RNA expression (γ-interferon-treated) (MHC class I RNA; [8]): None | % inhibition of class I RNA expression (basal) (MHC class I RNA; [9]): None | inhibition at 1000 µM (MHC class I RNA; [10]): 22 ± 16% | inhibition at 1000 µM (MHC class I RNA; [11]): 23 ± 15% | inhibition at 5000 µM (MHC class I RNA; [12]): 23 ± 11%

CSc1nccn1C [Compound 7, S-Methylmethimazole]
inhibition at 10 µM [1, 2]: 0% | inhibition at 25 µM [1, 3]: 0% | inhibition at 100 µM [1, 4]: 10 ± 6% | inhibition at 100 µM [1, 5]: 24 ± 6% | inhibition at 1000 µM [1, 6]: 44 ± 4% | inhibition at 1000 µM [1, 7]: 62 ± 9% | inhibition at 100 µM (MHC class I RNA; FRTL-5, 100 μM, 100 U/ml γ-interferon, 6H medium (TSH), 40 hours, read-out: % inhibition of class I RNA expression (γ-interferon-treated)): 14 ± 11% | inhibition at 100 µM (MHC class I RNA; FRTL-5, 100 μM, basal, 5H medium, 40 hours, read-out: % inhibition of class I RNA expression (basal)): 10 ± 8% | inhibition at 1000 µM (MHC class I RNA; [10]): 40 ± 15% | inhibition at 1000 µM (MHC class I RNA; [11]): 46 ± 9% | inhibition at 5000 µM (MHC class I RNA; [12]): 69 ± 6%

B1: γ-IFN: rat recombinant γ-interferon, 100 U/ml, used to increase MHC class I and class II expression in FRTL-5 cells (protein, UniProt P01581 23-156, looked up)
Interferon gamma: QGTLIESLESLKNYFNSSSMDAMEGKSLLLDIWRNWQKDGNTKILESQIISFYLRLFEVLKDNQAISNNISVIESHLITNFFSNSKAKKDAFMSIAKFEVNNPQIQHKAVNELIRVIHQLSPESSLRKRKRSRC
Luciferase activity +γ-IFN ([1]; Vector-LUC Control, 100 U/ml γ-interferon, 40 hours): 102 ± 6 % Control | Luciferase activity +γ-IFN ([1]; p(−127) class I-LUC, 100 U/ml γ-interferon, 40 hours): 180 ± 19 % Control | Luciferase activity +γ-IFN ([1]; p(−127ΔCRE) class I-LUC, 100 U/ml γ-interferon, 40 hours): 92 ± 10 % Control | Luciferase activity +γ-IFN ([1]; p(−203) class I-LUC, 100 U/ml γ-interferon, 40 hours): 495 ± 30 % Control | Luciferase activity +γ-IFN ([1]; p(−203ΔCRE) class I-LUC, 100 U/ml γ-interferon, 40 hours): 139 ± 16 % Control
